Measured values taken from patent US12391648B2, “Pyridyloxy thioester derivative and preparation method therefor, herbicidal composition, and application” (Qingdao Kingagroot Chemical Compound Co., Ltd., priority 2018, dated 2025).

Test system: ALS resistant Echinochloa crusgalli
Assay: Post-emergence test experiment (Table 4), weed control
Type: in vivo
Settings: 100 g/ha, after 3 weeks
Source text: (§1) The activity level standard of harmful plants destruction (i. e. growth inhibition rate) is as follows: • Level 5: the growth inhibition rate is greater than 85%; • Level 4: the growth inhibition rate is equal to or greater than 60% and less than 85%; • Level 3: the growth inhibition rate is equal to or greater than 40% and less than 60%; • Level 2: the growth inhibition rate is equal to or greater than 20% and less than 40%; • Level 1: the growth inhibition rate is equal to or greater than 5% and less than 20%; • Level 0: the growth inhibition rate is less than 5%;
(§2) The above described growth inhibition rate is fresh weight inhibition rate.
(§3) Post-emergence test experiment: Monocotyledonous and dicotyledonous weed seeds and main crop seeds (i. e. wheat, corn, rice, soybean, cotton, oilseed, millet and sorghum.) were put into a plastic pot loaded with soil. Then covered with 0.5-2 cm soil, the seeds were allowed to grow in good greenhouse environment. The test plants were treated at 2-3 leaf stage 2 weeks after sowing. The test compounds of the invention were dissolved with acetone respectively, then added with tween-80, and using 1.5 liters per hectare of an emulsible concentrate of methyl oleate as a synergist, and diluted by certain amount of water to certain concentration. The solution was sprayed to the plants with a sprayer. Then the plants were cultured for 3 weeks in the greenhouse, and the experiment result of weed controlling effect after 3 weeks was listed in tables 3-4.
(§4) […] Echinochloa crusgalli and Cyperus iria were collected from Ningxia Hui Autonomous Region of China, which had evolved resistance to ALS inhibiting herbicides. • Control compound A:

SMILES	ALS resistant Echinochloa crusgalli, activity level (growth inhibition rate)
COc1cc(OC)nc(Oc2cccc(Oc3nc(OC)cc(OC)n3)c2C(=O)O)n1 [Bispyribac-sodium, reference compound]	1 (Level 1: the growth inhibition rate is equal to or greater than 5% and less than 20%)

Same assay, conditions: 600 g/ha active ingredient, plus water 450 kg/ha, after 3 weeks

SMILES	ALS resistant Echinochloa crusgalli, activity level (growth inhibition rate)
CC(C)=NOCCSC(=O)C(C)Oc1nc(F)c(Cl)c(N)c1Cl (centres unmarked) [Compound 97]	5 (Level 5: the growth inhibition rate is greater than 85%)
CCSC(=O)C(C)Oc1nc(F)c(Cl)c(N)c1Cl (centres unmarked) [Compound 66]	5 (Level 5: the growth inhibition rate is greater than 85%)

Test system: ALS resistant Cyperus iria
Assay: as above
Type: in vivo
Settings: 100 g/ha, after 3 weeks
Source text: as §1, §2, §3, §4

SMILES	ALS resistant Cyperus iria, activity level (growth inhibition rate)
COc1cc(OC)nc(Oc2cccc(Oc3nc(OC)cc(OC)n3)c2C(=O)O)n1 [Bispyribac-sodium, reference compound]	1 (Level 1: the growth inhibition rate is equal to or greater than 5% and less than 20%)

Same assay, conditions: 600 g/ha active ingredient, plus water 450 kg/ha, after 3 weeks

SMILES	ALS resistant Cyperus iria, activity level (growth inhibition rate)
CC(C)=NOCCSC(=O)C(C)Oc1nc(F)c(Cl)c(N)c1Cl (centres unmarked) [Compound 97]	5 (Level 5: the growth inhibition rate is greater than 85%)
CCSC(=O)C(C)Oc1nc(F)c(Cl)c(N)c1Cl (centres unmarked) [Compound 66]	5 (Level 5: the growth inhibition rate is greater than 85%)

Test system: Japonica rice
Assay: Post-emergence test experiment (Table 4), crop safety
Type: in vivo
Settings: 100 g/ha, after 3 weeks
Source text: as §1, §2, §3, §4

SMILES	Japonica rice, activity level (growth inhibition rate)
COc1cc(OC)nc(Oc2cccc(Oc3nc(OC)cc(OC)n3)c2C(=O)O)n1 [Bispyribac-sodium, reference compound]	4 (Level 4: the growth inhibition rate is equal to or greater than 60% and less than 85%)

Same assay, conditions: 600 g/ha active ingredient, plus water 450 kg/ha, after 3 weeks

SMILES	Japonica rice, activity level (growth inhibition rate)
CC(C)=NOCCSC(=O)C(C)Oc1nc(F)c(Cl)c(N)c1Cl (centres unmarked) [Compound 97]	0 (Level 0: the growth inhibition rate is less than 5%)
CCSC(=O)C(C)Oc1nc(F)c(Cl)c(N)c1Cl (centres unmarked) [Compound 66]	0 (Level 0: the growth inhibition rate is less than 5%)

Test system: Indica rice
Assay: as above
Type: in vivo
Settings: 100 g/ha, after 3 weeks
Source text: as §1, §2, §3, §4

SMILES	Indica rice, activity level (growth inhibition rate)
COc1cc(OC)nc(Oc2cccc(Oc3nc(OC)cc(OC)n3)c2C(=O)O)n1 [Bispyribac-sodium, reference compound]	2 (Level 2: the growth inhibition rate is equal to or greater than 20% and less than 40%)

Same assay, conditions: 600 g/ha active ingredient, plus water 450 kg/ha, after 3 weeks

SMILES	Indica rice, activity level (growth inhibition rate)
CC(C)=NOCCSC(=O)C(C)Oc1nc(F)c(Cl)c(N)c1Cl (centres unmarked) [Compound 97]	0 (Level 0: the growth inhibition rate is less than 5%)
CCSC(=O)C(C)Oc1nc(F)c(Cl)c(N)c1Cl (centres unmarked) [Compound 66]	0 (Level 0: the growth inhibition rate is less than 5%)

Test system: Monochoria vaginalis
Assay: Weed control effect evaluation in rice field
Type: in vivo
Settings: 50 g/ha, paddy water application at 0.5 leaf stage, 14 days after treatment, weeds resistant to pyrazosulfuron-ethyl and penoxsulam
Source text: as §1
(§5) Transplanted rice safety evaluation and weed control effect evaluation in rice field:
Rice field soil was loaded into a 1/1,000,000 ha pot. The seeds of Monochoria vaginalis were sowed and gently covered with soil, then left to stand still in greenhouse in the state of 0.5-1 cm of water storage. It was kept at 3-4 cm of water storage thereafter. The weeds were treated by dripping the WP or SC water diluents prepared according to the common preparation method of the compounds of the present invention with pipette homogeneously to achieve specified effective amount when Monochoria vaginalis reached 0. 5 leaf stage.
(§6) The fertility condition of Monochoria vaginalis 14 days and rice 21 days after the treatment of the compound of the invention with the naked eye.
Note: The seeds of Monochoria vaginalis were collected from Heilongjing Province of China.

SMILES	Monochoria Vaginalis, activity standard level 0-5
COc1cnc(OC)n2nc(NS(=O)(=O)c3c(OCC(F)F)cccc3C(F)(F)F)nc12 [Penoxsulam, reference compound]	1 (Level 1: the growth inhibition rate is equal to or greater than 5% and less than 20%)

Same assay, conditions: 1000 g/ha, paddy water application at 0.5 leaf stage, 14 days after treatment, weeds resistant to pyrazosulfuron-ethyl and penoxsulam

SMILES	Monochoria Vaginalis, activity standard level 0-5
CC(C)=NOCCSC(=O)C(C)Oc1nc(F)c(Cl)c(N)c1Cl (centres unmarked) [Compound 97]	5 (Level 5: the growth inhibition rate is greater than 85%)
CCSC(=O)C(C)Oc1nc(F)c(Cl)c(N)c1Cl (centres unmarked) [Compound 66]	5 (Level 5: the growth inhibition rate is greater than 85%)

Test system: Leptochloa chinensis
Assay: Post-emergence test experiment (Table 3, 1000 g/ha)
Type: in vivo
Settings: post-emergence spray, after 3 weeks, fresh weight inhibition
Summary of the method: (§7)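 Activity graded levels 0-5 by fresh-weight inhibition (level 5 above 85%, level 0 below 5%), assessed 3 weeks after treatment. Plants grown in greenhouse pots were sprayed post-emergence at 2-3 leaves using acetone/tween-80 solutions with methyl oleate synergist (1.5 L/ha).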

SMILES	Activity level (growth inhibition rate) Leptochloa chinensis
CC(C)=NOCCSC(=O)C(C)Oc1nc(F)c(Cl)c(N)c1Cl (centres unmarked) [Compound 97]	5 (Level 5: the growth inhibition rate is greater than 85%)
CCSC(=O)C(C)Oc1nc(F)c(Cl)c(N)c1Cl (centres unmarked) [Compound 66]	5 (Level 5: the growth inhibition rate is greater than 85%)
CCCCCCCCCCSC(=O)C(C)Oc1nc(F)c(Cl)c(N)c1Cl (centres unmarked) [Compound 141]	5 (Level 5: the growth inhibition rate is greater than 85%)
CCCC(C)SC(=O)C(C)Oc1nc(F)c(Cl)c(N)c1Cl (centres unmarked) [Compound 144]	5 (Level 5: the growth inhibition rate is greater than 85%)
CC(Oc1nc(F)c(Cl)c(N)c1Cl)C(=O)SS(C)(=O)=O (centres unmarked) [Compound 105]	5 (Level 5: the growth inhibition rate is greater than 85%)
CCCC(C)CSC(=O)C(C)Oc1nc(F)c(Cl)c(N)c1Cl (centres unmarked) [Compound 152]	5 (Level 5: the growth inhibition rate is greater than 85%)

Test system: Digitaria sanguinalis
Assay: as above
Type: in vivo
Settings: post-emergence spray, after 3 weeks, fresh weight inhibition
Summary of the method: as §7

SMILES	Activity level (growth inhibition rate) Digitaria sanguinalis
CC(C)=NOCCSC(=O)C(C)Oc1nc(F)c(Cl)c(N)c1Cl (centres unmarked) [Compound 97]	5 (Level 5: the growth inhibition rate is greater than 85%)
CCSC(=O)C(C)Oc1nc(F)c(Cl)c(N)c1Cl (centres unmarked) [Compound 66]	5 (Level 5: the growth inhibition rate is greater than 85%)
CCCCCCCCCCSC(=O)C(C)Oc1nc(F)c(Cl)c(N)c1Cl (centres unmarked) [Compound 141]	5 (Level 5: the growth inhibition rate is greater than 85%)
CCCC(C)SC(=O)C(C)Oc1nc(F)c(Cl)c(N)c1Cl (centres unmarked) [Compound 144]	5 (Level 5: the growth inhibition rate is greater than 85%)
CC(Oc1nc(F)c(Cl)c(N)c1Cl)C(=O)SS(C)(=O)=O (centres unmarked) [Compound 105]	5 (Level 5: the growth inhibition rate is greater than 85%)
CCCC(C)CSC(=O)C(C)Oc1nc(F)c(Cl)c(N)c1Cl (centres unmarked) [Compound 152]	5 (Level 5: the growth inhibition rate is greater than 85%)

Test system: Abutilon theophrasti
Assay: as above
Type: in vivo
Settings: post-emergence spray, after 3 weeks, fresh weight inhibition
Summary of the method: as §7

SMILES	Activity level (growth inhibition rate) Abutilon theophrasti
CC(C)=NOCCSC(=O)C(C)Oc1nc(F)c(Cl)c(N)c1Cl (centres unmarked) [Compound 97]	5 (Level 5: the growth inhibition rate is greater than 85%)
CCSC(=O)C(C)Oc1nc(F)c(Cl)c(N)c1Cl (centres unmarked) [Compound 66]	5 (Level 5: the growth inhibition rate is greater than 85%)
CCCCCCCCCCSC(=O)C(C)Oc1nc(F)c(Cl)c(N)c1Cl (centres unmarked) [Compound 141]	5 (Level 5: the growth inhibition rate is greater than 85%)
CCCC(C)SC(=O)C(C)Oc1nc(F)c(Cl)c(N)c1Cl (centres unmarked) [Compound 144]	5 (Level 5: the growth inhibition rate is greater than 85%)
CC(Oc1nc(F)c(Cl)c(N)c1Cl)C(=O)SS(C)(=O)=O (centres unmarked) [Compound 105]	5 (Level 5: the growth inhibition rate is greater than 85%)
CCCC(C)CSC(=O)C(C)Oc1nc(F)c(Cl)c(N)c1Cl (centres unmarked) [Compound 152]	5 (Level 5: the growth inhibition rate is greater than 85%)

Test system: Monochoria vaginalis
Assay: as above
Type: in vivo
Settings: post-emergence spray, after 3 weeks, fresh weight inhibition
Summary of the method: as §7

SMILES	Activity level (growth inhibition rate) Monochoria Vaginalis
CC(C)=NOCCSC(=O)C(C)Oc1nc(F)c(Cl)c(N)c1Cl (centres unmarked) [Compound 97]	5 (Level 5: the growth inhibition rate is greater than 85%)
CCSC(=O)C(C)Oc1nc(F)c(Cl)c(N)c1Cl (centres unmarked) [Compound 66]	5 (Level 5: the growth inhibition rate is greater than 85%)
CCCCCCCCCCSC(=O)C(C)Oc1nc(F)c(Cl)c(N)c1Cl (centres unmarked) [Compound 141]	5 (Level 5: the growth inhibition rate is greater than 85%)
CCCC(C)SC(=O)C(C)Oc1nc(F)c(Cl)c(N)c1Cl (centres unmarked) [Compound 144]	5 (Level 5: the growth inhibition rate is greater than 85%)
CC(Oc1nc(F)c(Cl)c(N)c1Cl)C(=O)SS(C)(=O)=O (centres unmarked) [Compound 105]	5 (Level 5: the growth inhibition rate is greater than 85%)
CCCC(C)CSC(=O)C(C)Oc1nc(F)c(Cl)c(N)c1Cl (centres unmarked) [Compound 152]	5 (Level 5: the growth inhibition rate is greater than 85%)

Test system: Galium spurium
Assay: as above
Type: in vivo
Settings: post-emergence spray, after 3 weeks, fresh weight inhibition
Summary of the method: as §7

SMILES	Activity level (growth inhibition rate) Galium spurium
CC(C)=NOCCSC(=O)C(C)Oc1nc(F)c(Cl)c(N)c1Cl (centres unmarked) [Compound 97]	5 (Level 5: the growth inhibition rate is greater than 85%)
CCSC(=O)C(C)Oc1nc(F)c(Cl)c(N)c1Cl (centres unmarked) [Compound 66]	5 (Level 5: the growth inhibition rate is greater than 85%)
CCCCCCCCCCSC(=O)C(C)Oc1nc(F)c(Cl)c(N)c1Cl (centres unmarked) [Compound 141]	5 (Level 5: the growth inhibition rate is greater than 85%)
CCCC(C)SC(=O)C(C)Oc1nc(F)c(Cl)c(N)c1Cl (centres unmarked) [Compound 144]	5 (Level 5: the growth inhibition rate is greater than 85%)
CC(Oc1nc(F)c(Cl)c(N)c1Cl)C(=O)SS(C)(=O)=O (centres unmarked) [Compound 105]	5 (Level 5: the growth inhibition rate is greater than 85%)
CCCC(C)CSC(=O)C(C)Oc1nc(F)c(Cl)c(N)c1Cl (centres unmarked) [Compound 152]	5 (Level 5: the growth inhibition rate is greater than 85%)

Test system: Setaria viridis
Assay: as above
Type: in vivo
Settings: post-emergence spray, after 3 weeks, fresh weight inhibition
Summary of the method: as §7

SMILES	Activity level (growth inhibition rate) Setaria viridis
CC(C)=NOCCSC(=O)C(C)Oc1nc(F)c(Cl)c(N)c1Cl (centres unmarked) [Compound 97]	5 (Level 5: the growth inhibition rate is greater than 85%)
CCSC(=O)C(C)Oc1nc(F)c(Cl)c(N)c1Cl (centres unmarked) [Compound 66]	5 (Level 5: the growth inhibition rate is greater than 85%)
CCCCCCCCCCSC(=O)C(C)Oc1nc(F)c(Cl)c(N)c1Cl (centres unmarked) [Compound 141]	5 (Level 5: the growth inhibition rate is greater than 85%)
CCCC(C)SC(=O)C(C)Oc1nc(F)c(Cl)c(N)c1Cl (centres unmarked) [Compound 144]	5 (Level 5: the growth inhibition rate is greater than 85%)
CC(Oc1nc(F)c(Cl)c(N)c1Cl)C(=O)SS(C)(=O)=O (centres unmarked) [Compound 105]	5 (Level 5: the growth inhibition rate is greater than 85%)
CCCC(C)CSC(=O)C(C)Oc1nc(F)c(Cl)c(N)c1Cl (centres unmarked) [Compound 152]	5 (Level 5: the growth inhibition rate is greater than 85%)

Test system: rice (japonica rice)
Assay: Transplanted rice safety evaluation
Type: in vivo
Settings: 1000 g/ha, transplanted 3-leaf stage japonica rice, treated 5 days after transplantation, 21 days after treatment
Source text: as §1, §5
In addition, the rice field soil that loaded into the 1/1,000,000 ha pot was leveled to keep water storage at 3-4 cm depth. The 3-leaf stage rice (japonica rice) was transplanted at 3 cm of transplanting depth the next day. The compound of the present invention was treated by the same way after 5 days of transplantation.
as §6

SMILES	Rice, activity standard level 0-5 (safety)
CC(C)=NOCCSC(=O)C(C)Oc1nc(F)c(Cl)c(N)c1Cl (centres unmarked) [Compound 97]	0 (Level 0: the growth inhibition rate is less than 5%)
CCSC(=O)C(C)Oc1nc(F)c(Cl)c(N)c1Cl (centres unmarked) [Compound 66]	0 (Level 0: the growth inhibition rate is less than 5%)
